# Data taken from US5215916A, “Super glucocorticoid receptors: receptors with increased affinity and specificity for glucocorticoid steriods” (priority 1991, dated 1993).
# Target: T1, Wild type glucocorticoid receptor (Rattus norvegicus, UniProt P06536)
# T1 construct: Thus the full length receptor was removed from the VARO vector with BamHI and inserted into the SVL vector; expressed in transfected cells; host or cells: COS-7 (cytosol)
# T1 sequence (P06536 1-795): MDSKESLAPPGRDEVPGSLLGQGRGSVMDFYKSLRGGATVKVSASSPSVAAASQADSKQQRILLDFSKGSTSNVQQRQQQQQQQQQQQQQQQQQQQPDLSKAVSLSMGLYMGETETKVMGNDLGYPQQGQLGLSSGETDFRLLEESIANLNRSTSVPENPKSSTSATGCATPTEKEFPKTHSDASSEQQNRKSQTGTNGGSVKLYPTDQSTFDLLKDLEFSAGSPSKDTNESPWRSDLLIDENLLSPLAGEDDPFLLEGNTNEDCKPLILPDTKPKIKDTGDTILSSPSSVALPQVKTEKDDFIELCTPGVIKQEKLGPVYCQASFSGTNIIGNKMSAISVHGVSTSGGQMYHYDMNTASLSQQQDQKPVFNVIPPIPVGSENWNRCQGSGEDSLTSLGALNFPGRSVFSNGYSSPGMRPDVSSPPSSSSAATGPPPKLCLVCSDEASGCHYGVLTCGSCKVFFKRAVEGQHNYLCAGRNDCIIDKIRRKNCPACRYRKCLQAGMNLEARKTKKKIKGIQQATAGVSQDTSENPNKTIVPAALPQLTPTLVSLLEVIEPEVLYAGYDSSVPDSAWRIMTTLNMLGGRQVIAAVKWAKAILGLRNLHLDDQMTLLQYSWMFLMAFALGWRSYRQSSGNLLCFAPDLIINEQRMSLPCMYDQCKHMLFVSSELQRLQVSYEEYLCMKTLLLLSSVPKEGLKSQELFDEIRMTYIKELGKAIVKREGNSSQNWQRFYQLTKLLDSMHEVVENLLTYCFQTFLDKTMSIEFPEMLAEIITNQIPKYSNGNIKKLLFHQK
# Experiment: Competition binding assay with [3H]Dex, COS-7 cytosol, wild type receptor
# Protocol: Monolayer cultures of COS-7 cells were grown in DMEM (Gibco) supplemented with 5% fetal bovine serum (FBS) (Biofluids) at 37° C. in a 5% CO2 incubator. Standard calcium phosphate transfection methods were used to introduce the wild type and mutant receptor expression vectors (pSVL) into COS-7 cells (100 mm plates [Costar] at a cell density of about 10^6 /plate were each treated with 10 μg of plasmid DNA). After ~16 hrs of incubation at 37° C. in a 5% CO2 incubator, the excess calcium phosphate and precipitate were removed by washing with phosphate buffered saline (PBS). […]
# COS-7 cell cytosol containing the steroid-free receptors was prepared by cell lysis at -80° C. and centrifugation at 15,000 ×g and labeled as described for HTC cells (S. S. Simons and P. A. Miller, Biochem 23:6876-6882 (1984)). […] The specifically bound [^3 H]Dex was determined by first adding a 10% dextran-coated charcoal solution (added volume =20% of reaction solution volume) to remove free steroid and then subtracting the nonspecific binding seen in the presence of excess nonradioactive Dex. […]
# The specificity of steroid binding was determined by Rodbard correction (Rodbard, 1973) of the data from a competition binding assay (S. S. Simons et al., Biochem. Biophys. Res. Comm. 86:793-800 (1979); Miller and Simons, 1988). […]
row,SMILES,Relative Ka of Steroid Binding to Receptor
1,CC#C[C@]1(O)CC[C@H]2[C@@H]3CCC4=CC(=O)CCC4=C3[C@@H](c3ccc(N(C)C)cc3)C[C@@]21C [RU486],3.4 ± 1.2
2,"C[C@]12CC[C@@H]3c4ccc(O)cc4CC[C@H]3[C@@H]1CC[C@@H]2O [17β-Estradiol, 17β-estradiol]",0.029 ± 0.006
